Laboratory results as given in US12714696B2, “Low dose fluralaner compositions for protection against parasitic invertebrate pest” (VIRBAC, priority 2019, dated 2026).
Read-outs that look alike come from different tables or passages of the source.

What was measured:
[1] = Adverse event observation, oral study against fleas; assay type: in vivo, beagle dogs; conditions: oral 35 μg/kg Days 0-3, dogs
Protocol: Dogs were observed hourly±15 minutes for four hours after administration on Day 0 and once daily two hours±15 minutes after Investigational Veterinary Product or control product administration on Days 1, 2 and 3. Observations were conducted for each individual dog.

Rhipicephalus sanguineus = test: Efficacy against ticks on dogs, oral 250/35/600 μg/kg study; assay type: in vivo; conditions: for Percentage efficacy using geometric mean, live ticks / live ticks, geometric mean, Group 2: oral 250/35/600 μg/kg regimen, dogs
Protocol: The second objective is to investigate the pharmacodynamics between the fluralaner plasmatic dose and the effectiveness against ticks. • IVP: Investigational Veterinary Product, is pure Fluralaner+DMSO (250 μg/kg on Days 0 to 3 (0.25 mL/kg), then 35 μg/kg on Days 4 to 9 (0.35 mL/kg), then 600 μg/kg on Day 11) • Control product is DMSO (0.25 mL/kg on Days 0 to 3, then 0.35 mL/kg on Days 4 to 9)
Dogs were infested with approximately 50 (±4) viable, adult, unfed R. sanguineus ticks on Days 1, 3, 5, 8, 10, 12, 16, 22, 26 and 30 to assess efficacy. Ticks will be removed and counted on Days 3, 5, 7 (48 hours±2 hours after infestation) and 9, 11, 13, 17, […], 27, 32 (24 hours±2 hours after infestation). Dogs were also infested with approximately 100 (±8) viable, adult, C. felis fleas on Day −6 (±1 day) for randomisation purposes and on Day 2 to assess efficacy. Fleas will be removed and counted on Days −5 (+1 day) and 3 (24 hours±2 hours after infestation).
The efficacy against ticks and fleas were calculated for the study groups at each assessment day according to the formulas given below.
Efficacy calculations based on geometric mean values were, however, also reported on. Such calculations were based on the geometric mean values of the tick or flea (count+1) data. One (1) was subsequently subtracted from the result to obtain a meaningful value for the geometric mean of each group.
Efficacy was calculated as follows: Efficacy (%)=100×(Mc−Mt)/Mc, where: • Mc=Mean number of live ticks (categories 1 to 2) or live fleas on dogs in the negative control group (group 1) at a specific time point. • Mt=Mean number of live ticks (categories 1 to 2) or live fleas on dogs in the IVP group (group 2) • at a specific time point.

[2] = Pharmacokinetic profile of Bravecto spot-on after single topical administration on dogs; conditions: dog, in vivo, topical or ocular, 6250 ug/kg, Bravecto spot-on single topical 6250 μg/kg
Protocol: The objective of the study is to determine the pharmacokinetic profile of the Bravecto spot-on containing fluralaner after a single topical administration on dogs at a dose rate of 6250 μg/kg after feeding. • IVP: Investigational Veterinary Product, is Bravecto spot-on containing fluralaner at a dose rate of 6250 μg/kg (22.3112 μL/kg) on Day 0
Ten dogs were enrolled in the study of which six were included meeting the inclusion criteria. In addition, veterinary examinations (Day −14 and Day −2±one day), general health observations (all days) and weighing of all dogs (Day −2±one day) were performed.
On Day 0, all dogs will receive the IVP at a dose rate of 6250 μg/kg. The quantity of IVP to be administered will be calculated according to the dog's individual body weight. Dogs will be observed hourly (±15 minutes) for four hours after administration on Day 0.
Blood specimens will be collected from all dogs on Days −14 and −7 for clinical chemistry and hematology for inclusion and for pharmacokinetic analysis prior to IVP treatment on Day 0 and on Days 1 (+24 hours), 3 (+72 hours), 5 (+120 hours), 7 (+168 hours), 10 (+240 hours), 14 (+336 hours), 21 (+504 hours), 28 (+672 hours), 35 (+840 hours), 42 (+1008 hours), 49 (+1176 hours), 56 (+1344 hours) and 60 (+1440 hours).
The PK parameters of fluralaner were calculated using a non-compartmental approach.
The following rules were applied for the calculation of the PK parameters: • All the plasma concentrations, validated by the bioanalytical laboratory, were used for the PK analysis. • The actual blood sampling times were used throughout. • Concentrations below the Limit of Quantification (LOQ) value were considered as zero from time zero (pre-dose) up to the time at which the first quantifiable concentration above the LOQ value was observed. Concentrations below the LOQ value between two quantifiable concentrations were considered as missing. Trailing concentrations below the LOQ value were not used in calculations.
Cmax the observed maximum concentration in plasma measured after dosing.
tmax the time at which Cmax was apparent.
λz the terminal rate constant (λz) was estimated by log-linear regression analysis on data points visually assessed, to be on the terminal log-linear phase. For the slope of the terminal elimination phase to be accepted as reliable, the following criteria were used: • the terminal data points were apparently randomly distributed about a single straight line (on visual inspection), • a minimum of three data points, including the last measured data point and excluding Cmax, were available for the regression.
t1/2 the terminal plasma half-life (t1/2) was calculated according to the following equation: […]
AUC0-t the area under the concentration-time curve from time zero (pre-dose) to the time of last quantifiable concentration (t) was calculated using a linear trapezoidal method.
[AUC0-∞=AUC0-t+(Ct/λz)], where Ct was the observed concentration of drug for the last sample on the PK profile in which the drug was detected, and λz was as defined above.
The extrapolated area under the curve, expressed as a percentage of the total area, AUCinf, was also calculated as: Area Extra (%)=(AUC0-∞−AUC0-t)/AUC0-∞*100%.

[3] = plasma pK in dogs; fluralaner 56 mg/kg; cited from earlier work

Cc1cc(C2=NOC(c3cc(Cl)cc(Cl)c3)(C(F)(F)F)C2)ccc1C(=O)NCC(=O)NCC(F)(F)F (stereo not drawn) [fluralaner, Fluralaner]
Adverse Events as a result of the product [1]: No Adverse Events | Percentage efficacy using geometric mean, live ticks (Rhipicephalus sanguineus; Day 3): 100 | live ticks, geometric mean, Group 2 (Rhipicephalus sanguineus; Day 3): 0.0 | Percentage efficacy using geometric mean, live ticks (Rhipicephalus sanguineus; Day 5): 100 | live ticks, geometric mean, Group 2 (Rhipicephalus sanguineus; Day 5): 0.0 | Percentage efficacy using geometric mean, live ticks (Rhipicephalus sanguineus; Day 7): 100 | live ticks, geometric mean, Group 2 (Rhipicephalus sanguineus; Day 7): 0.0 | Percentage efficacy using geometric mean, live ticks (Rhipicephalus sanguineus; Day 9): 47.3 | live ticks, geometric mean, Group 2 (Rhipicephalus sanguineus; Day 9): 11.8 | Percentage efficacy using geometric mean, live ticks (Rhipicephalus sanguineus; Day 11): 77.8 | live ticks, geometric mean, Group 2 (Rhipicephalus sanguineus; Day 11): 7.8 | Percentage efficacy using geometric mean, live ticks (Rhipicephalus sanguineus; Day 13): 85.0 | live ticks, geometric mean, Group 2 (Rhipicephalus sanguineus; Day 13): 4.5 | Percentage efficacy using geometric mean, live ticks (Rhipicephalus sanguineus; Day 17): 80.8 | live ticks, geometric mean, Group 2 (Rhipicephalus sanguineus; Day 17): 5.1 | Percentage efficacy using geometric mean, live ticks (Rhipicephalus sanguineus; Day 23): 46.1 | Percentage efficacy using geometric mean, live ticks (Rhipicephalus sanguineus; Day 27): 78.9 | live ticks, geometric mean, Group 2 (Rhipicephalus sanguineus; Day 27): 6.8 | Percentage efficacy using geometric mean, live ticks (Rhipicephalus sanguineus; Day 31): 56.1 | efficacy against ticks from the first day after treatment (Rhipicephalus sanguineus; infestation at D1, first measurement at D3): present | efficacy against ticks (Rhipicephalus sanguineus; period during the first four doses of 250 μg/kg per day and the following three doses of 35 μg/kg per day): 100% | AUC(0-t) ([2]; dogs without 86D 6FA, n=5, read-out: fluralaner AUC0-t, Mean): 181 µg·h/mL | Cmax ([2]; dogs without 86D 6FA, n=5, read-out: fluralaner Cmax, Mean): 238 ng/mL | half-life ([2]; dogs without 86D 6FA, n=5, read-out: fluralaner t½ (terminal half-life), Mean (converted)): 16.2 days | Cmax ([2]; dogs, read-out: maximum concentration (Cmax), range): 161 to 353 ng/mL | half-life ([2]; dogs, read-out: terminal half-life, range): 14.2 to 20.4 days | interference between fluralaner and ivermectin [3]: absence of interference
